Assay results taken from ChEMBL document CHEMBL3046027, “In vitro and in vivo antifungal activity of synthetic pure isothiocyanates against Sclerotinia sclerotiorum” (Pest Manag Sci, 2011).

How the values were obtained:
[1] = system: Sclerotinia sclerotiorum; assay: Antifungal activity against Sclerotinia sclerotiorum assessed as inhibition of mycelial growth in contact phase at 2508 umol/l measured at 20 degC after 5 days; format: functional; conditions: 120 h, read-out: GI
[2] = system: Sclerotinia sclerotiorum; assay: Antifungal activity against Sclerotinia sclerotiorum assessed as inhibition of mycelial growth in contact phase at 752 umol/l measured at 20 degC after 5 days; format: functional; conditions: 120 h, read-out: GI
[3] = system: Sclerotinia sclerotiorum; assay: Antifungal activity against Sclerotinia sclerotiorum assessed as inhibition of mycelial growth in contact phase at 1672 umol/l measured at 20 degC after 5 days; format: functional; conditions: 120 h, read-out: GI
[4] = system: Sclerotinia sclerotiorum; assay: Fungistatic activity in Sclerotinia sclerotiorum assessed as inhibition of mycelial growth in contact phase at 1672 umol/l measured at 20 degC after 5 days relative to control; format: functional; conditions: 120 h, read-out: GI
[5] = system: Sclerotinia sclerotiorum; assay: In vivo antifungal Sclerotinia sclerotiorum in Pepper (Capsicum annuum L. cv. Sera Demre) assessed as inhibition of mycelial growth in volatile phase at 168 umol/L measured after 10 to 14 weeks; format: functional
[6] = system: Sclerotinia sclerotiorum; assay: Antifungal activity against Sclerotinia sclerotiorum assessed as inhibition of germination in volatile phase at 42 umol/l measured at 20 degC after 5 days; format: functional; conditions: 120 h
[7] = system: Sclerotinia sclerotiorum; assay: Fungistatic activity in Sclerotinia sclerotiorum assessed as inhibition of mycelial growth in volatile phase at 836 umol/l measured at 20 degC after 5 days relative to control; format: functional; conditions: 120 h, read-out: GI
[8] = system: Sclerotinia sclerotiorum; assay: Fungistatic activity in Sclerotinia sclerotiorum assessed as inhibition of carpogenic germination in volatile phase at 42 umol/l measured at 20 degC after 5 days relative to control; format: functional; conditions: 120 h
[9] = system: Sclerotinia sclerotiorum; assay: Antifungal activity against Sclerotinia sclerotiorum assessed as inhibition of germination in volatile phase at 84 umol/l measured at 20 degC after 5 days; format: functional; conditions: AT84, 120 h
[10] = system: Sclerotinia sclerotiorum; assay: Antifungal activity against Sclerotinia sclerotiorum assessed as inhibition of germination in volatile phase at 418 umol/l measured at 20 degC after 5 days; format: functional; conditions: 120 h
[11] = system: Sclerotinia sclerotiorum; assay: Antifungal activity against Sclerotinia sclerotiorum assessed as inhibition of mycelial growth in contact phase at 585 umol/l measured at 20 degC after 5 days; format: functional; conditions: 120 h, read-out: GI
[12] = system: Sclerotinia sclerotiorum; assay: Antifungal activity against Sclerotinia sclerotiorum assessed as inhibition of germination in volatile phase at 251 umol/l measured at 20 degC after 5 days; format: functional; conditions: 120 h
[13] = system: Sclerotinia sclerotiorum; assay: Antifungal activity against Sclerotinia sclerotiorum assessed as inhibition of mycelial growth in volatile phase at 836 umol/l measured at 20 degC after 5 days; format: functional; conditions: 120 h, read-out: GI
[14] = system: Sclerotinia sclerotiorum; assay: Fungistatic activity in Sclerotinia sclerotiorum assessed as inhibition of carpogenic germination in volatile phase at 836 umol/l measured at 20 degC after 5 days relative to control; format: functional; conditions: 120 h
[15] = system: Sclerotinia sclerotiorum; assay: Antifungal activity against Sclerotinia sclerotiorum assessed as inhibition of mycelial growth in volatile phase at 42 umol/l measured at 20 degC after 5 days; format: functional; conditions: 120 h, read-out: GI
[16] = system: Sclerotinia sclerotiorum; assay: Antifungal activity against Sclerotinia sclerotiorum assessed as inhibition of mycelial growth in volatile phase at 84 umol/l measured at 20 degC after 5 days; format: functional; conditions: 120 h, read-out: GI
[17] = system: Sclerotinia sclerotiorum; assay: Fungistatic activity in Sclerotinia sclerotiorum assessed as inhibition of carpogenic germination in volatile phase at 418 umol/l measured at 20 degC after 5 days relative to control; format: functional; conditions: 120 h
[18] = system: Sclerotinia sclerotiorum; assay: Fungistatic activity in Sclerotinia sclerotiorum assessed as viability in volatile phase at 418 umol/l measured at 20 degC after 5 days relative to control; format: functional; conditions: 120 h, read-out: GI
[19] = system: Sclerotinia sclerotiorum; assay: Antifungal activity against Sclerotinia sclerotiorum assessed as inhibition of mycelial growth in volatile phase at 585 umol/l measured at 20 degC after 5 days; format: functional; conditions: 120 h, read-out: GI
[20] = system: Sclerotinia sclerotiorum; assay: Antifungal activity against Sclerotinia sclerotiorum assessed as inhibition of mycelial growth in volatile phase at 418 umol/l measured at 20 degC after 5 days; format: functional; conditions: 120 h, read-out: GI
[21] = system: Sclerotinia sclerotiorum; assay: Fungistatic activity in Sclerotinia sclerotiorum assessed as inhibition of mycelial growth in contact phase measured at 20 degC after 5 days; format: functional, organism-based; conditions: 120 h
[22] = system: Sclerotinia sclerotiorum; assay: In vivo antifungal Sclerotinia sclerotiorum in Pepper (Capsicum annuum L. cv. Sera Demre) assessed as inhibition of mycelial growth in volatile phase at 84 umol/L measured after 10 to 14 weeks; format: functional
[23] = system: Sclerotinia sclerotiorum; assay: Fungitoxic activity in Sclerotinia sclerotiorum assessed as inhibition of mycelial growth in contact phase at 2508 umol/l measured at 20 degC after 5 days relative to control; format: functional; conditions: 120 h
[24] = system: Sclerotinia sclerotiorum; assay: Antifungal activity against Sclerotinia sclerotiorum assessed as inhibition of germination in volatile phase at 836 umol/l measured at 20 degC after 5 days; format: functional; conditions: 120 h
[25] = system: Sclerotinia sclerotiorum; assay: Fungistatic activity in Sclerotinia sclerotiorum assessed as inhibition of mycelial growth in volatile phase measured at 20 degC after 5 days; format: functional, organism-based; conditions: 120 h
[26] = system: Sclerotinia sclerotiorum; assay: Antifungal activity against Sclerotinia sclerotiorum assessed as inhibition of mycelial growth in contact phase at 836 umol/l measured at 20 degC after 5 days; format: functional; conditions: 120 h, read-out: GI
[27] = system: Sclerotinia sclerotiorum; assay: Fungistatic activity in Sclerotinia sclerotiorum assessed as sclerotial viability measured at 20 degC after 5 days; format: functional, organism-based; conditions: 120 h
[28] = system: Sclerotinia sclerotiorum; assay: Fungistatic activity in Sclerotinia sclerotiorum assessed as inhibition of carpogenic germination in volatile phase at 84 umol/l measured at 20 degC after 5 days relative to control; format: functional; conditions: AT84, 120 h

Structure (SMILES): S=C=Nc1ccccc1 [PHENYLISOTHIOCYANATE]
- inhibition of growth at 2508 µM [1]: 100%
- inhibition of growth at 752 µM [2]: 23.7%
- inhibition of growth at 1672 µM [3]: 100%
- inhibition of growth at 1672 µM [4]: 100%
- inhibition in vivo at 168 µM [5]: 68.3%
- inhibition at 42 µM [6]: 6.7%
- inhibition of growth at 836 µM [7]: 100%
- inhibition at 42 µM [8]: 12.5%
- inhibition at 84 µM [9]: 13.3%
- inhibition at 418 µM [10]: 100%
- inhibition of growth at 585 µM [11]: 5%
- inhibition at 251 µM [12]: 46.7%
- inhibition of growth at 836 µM [13]: 100%
- inhibition at 836 µM [14]: 85%
- inhibition of growth at 42 µM [15]: 20.8%
- inhibition of growth at 84 µM [16]: 42.8%
- inhibition at 418 µM [17]: 52.5%
- inhibition of growth at 418 µM [18]: 100%
- inhibition of growth at 585 µM [19]: 74.2%
- inhibition of growth at 418 µM [20]: 70%
- EC50 [21]: 802 µM
- inhibition in vivo at 84 µM [22]: 61.7%
- inhibition at 2508 µM [23]: 100%
- inhibition at 836 µM [24]: 100%
- EC50 [25]: 134 µM
- inhibition of growth at 836 µM [26]: 65.5%
- EC50 [27]: 192 µM
- inhibition at 84 µM [28]: 52.5%
